As usually defined, the inhibition is the drop in the measured response relative to a control, in per cent. As usually defined, the IC50 is the midpoint of a concentration-inhibition curve. By solubility is commonly meant how much of the substance goes into solution per volume.

Converted amounts (≈) assume the structure as drawn.

Data set [1] addresses T1, Potassium voltage-gated channel subfamily A member 5 (Homo sapiens, UniProt P22460). In words: Inhibition of human Kv1.5 channel expressed in mouse L929 cells assessed as blockade of ultra rapidly activating potassium current at 1 uM by voltage clamp technique. The data set is classed as cell-based.
For data set [2], the target named is T1, Potassium voltage-gated channel subfamily A member 5. Nature of the data set: Inhibition of human Kv1.5 channel expressed in mouse L929 cells assessed as blockade of ultra rapidly activating potassium current by voltage clamp technique. It is filed as cell-based.
Data set [3] can be described thus: Aqueous solubility at pH 6.5. It is filed as physicochemical.

T1 sequence (P22460 whole entry): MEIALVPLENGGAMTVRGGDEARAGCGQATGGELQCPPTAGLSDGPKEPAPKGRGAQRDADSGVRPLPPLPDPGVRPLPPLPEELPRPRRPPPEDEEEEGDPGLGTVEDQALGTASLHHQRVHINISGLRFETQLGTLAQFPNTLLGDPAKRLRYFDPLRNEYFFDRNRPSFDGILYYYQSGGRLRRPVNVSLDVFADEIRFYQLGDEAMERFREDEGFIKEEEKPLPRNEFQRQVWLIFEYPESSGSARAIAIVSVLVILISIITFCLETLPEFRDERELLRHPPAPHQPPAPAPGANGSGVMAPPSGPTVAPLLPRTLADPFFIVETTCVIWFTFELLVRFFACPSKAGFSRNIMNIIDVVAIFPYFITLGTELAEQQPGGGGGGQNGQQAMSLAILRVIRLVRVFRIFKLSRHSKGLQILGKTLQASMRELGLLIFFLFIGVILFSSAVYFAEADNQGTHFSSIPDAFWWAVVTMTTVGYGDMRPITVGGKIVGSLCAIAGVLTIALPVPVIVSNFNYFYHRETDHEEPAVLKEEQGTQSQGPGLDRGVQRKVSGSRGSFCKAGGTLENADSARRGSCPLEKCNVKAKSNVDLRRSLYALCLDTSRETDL

As to `CCc1ccc(S(=O)(=O)N[C@@H]2c3cc(C(=O)Nc4cc(NC(C)=O)n[nH]4)cnc3OC(C)(C)[C@H]2O)cc1` (racemic), the inhibition in data set [1] was determined as 31%.
On to `CCc1ccc(S(=O)(=O)N[C@@H]2c3cc(C(=O)N4CCc5ccccc54)cnc3OC(C)(C)[C@H]2O)cc1` (racemic), for which the inhibition in data set [1] amounted to 30%.
On to `CCc1ccc(S(=O)(=O)N[C@@H]2c3cc(C(=O)Nc4ccc(Br)cc4)ccc3OC(C)(C)[C@H]2O)cc1` (racemic), for which, in data set [2], the IC50 worked out at 316 nM. The inhibition in data set [1] amounted to 73%.
Turning to `CCc1ccc(S(=O)(=O)N[C@@H]2c3cc(C(=O)N(CC)Cc4ccc(OC)cc4)cnc3OC(C)(C)[C@H]2O)cc1` (racemic), the IC50 in data set [2] stood at 605 nM. The inhibition in data set [1] is 70%.
In the case of `CCc1ccc(S(=O)(=O)N[C@@H]2c3cc(C(=O)N(CC)Cc4ccccc4OC)cnc3OC(C)(C)[C@H]2O)cc1` (racemic), in data set [2], the IC50 was 2090 nM. Besides, the inhibition in data set [1] was 35%.
For `CCc1ccc(S(=O)(=O)N[C@@H]2c3cc(C(=O)N(CC)Cc4ccccc4)cnc3OC(C)(C)[C@H]2O)cc1` (racemic), in data set [1], the inhibition worked out at 20%.
Regarding `CCc1ccc(S(=O)(=O)N[C@@H]2c3cc(C(=O)Nc4nnc(C(F)(F)F)s4)cnc3OC(C)(C)[C@H]2O)cc1` (racemic), the inhibition in data set [1] stood at 3%.
With `CCc1ccc(S(=O)(=O)N[C@@H]2c3cc(C(=O)N(C)Cc4ccccc4)cnc3OC(C)(C)[C@H]2O)cc1` (racemic), the inhibition in data set [1] stood at 12%.
Compound `CCc1ccc(S(=O)(=O)N[C@@H]2c3cc(C(=O)N(CC)Cc4ccccc4F)ccc3OC(C)(C)[C@H]2O)cc1` (racemic) registered a solubility in data set [3] of 10 µg/mL (≈ 18.5 µM).
For the compound `CCc1ccc(S(=O)(=O)N[C@@H]2c3cc(C(=O)NCc4ccccc4)cnc3OC(C)(C)[C@H]2O)cc1` (racemic), in data set [1], the inhibition came to 17%.
Consider `CCc1ccc(S(=O)(=O)N[C@@H]2c3cc(C(=O)N(C)c4ccccc4)ccc3OC(C)(C)[C@H]2O)cc1` (racemic), for which, in data set [1], the inhibition is 87%.
As for `CCc1ccc(S(=O)(=O)N[C@@H]2c3cc(C(=O)N(CC)Cc4c(F)cccc4Cl)cnc3OC(C)(C)[C@H]2O)cc1` (racemic), in data set [2], the IC50 came out at 615 nM. For the same compound, the inhibition in data set [1] worked out at 54%.
On to `CCc1ccc(S(=O)(=O)N[C@@H]2c3cc(C(=O)NCc4ccccc4F)cnc3OC(C)(C)[C@H]2O)cc1` (racemic), for which, in data set [1], the inhibition came to 4%.
As to `CCc1ccc(S(=O)(=O)N[C@@H]2c3cc(C(=O)Nc4ccc(Br)cc4)cnc3OC(C)(C)[C@H]2O)cc1` (racemic), the inhibition in data set [1] is 8%.
As to `CCc1ccc(S(=O)(=O)N[C@@H]2c3cc(C(=O)N(CC)c4cccc(Cl)c4)cnc3OC(C)(C)[C@H]2O)cc1` (racemic), the IC50 in data set [2] stood at 649 nM. Also, in data set [1], the inhibition was found to be 64%.
Turning to `CCc1ccc(S(=O)(=O)N[C@@H]2c3cc(NC(=O)c4cccc(OC)c4)ccc3C[C@H]2O)cc1`, the IC50 in data set [2] is 50 nM.
Turning to `CCc1ccc(S(=O)(=O)N[C@@H]2c3cc(C(=O)N(C)c4ccccc4)cnc3OC(C)(C)[C@H]2O)cc1` (racemic), the inhibition in data set [1] is 12%.
In the case of `CCc1ccc(S(=O)(=O)N[C@@H]2c3cc(C(=O)N(CC)Cc4cccc(OC)c4)cnc3OC(C)(C)[C@H]2O)cc1` (racemic), in data set [1], the inhibition was found to be 23%.
In the case of `CCc1ccc(S(=O)(=O)N[C@@H]2c3cc(C(=O)N4CCC[C@H]4CNc4c(C)cccc4C)cnc3OC(C)(C)[C@H]2O)cc1` (racemic), the inhibition in data set [1] is 15%.
In the case of `CCc1ccc(S(=O)(=O)N[C@H]2CCCc3ccc(N(Cc4cccc(C)n4)C(=O)CCc4ccccc4)cc32)cc1`, the IC50 in data set [2] came to 46 nM.
`CCc1ccc(S(=O)(=O)N[C@@H]2c3cc(C(=O)N(CC)c4cc(F)ccc4F)cnc3OC(C)(C)[C@H]2O)cc1` (racemic): the IC50 in data set [2] was 912 nM. The inhibition in data set [1] was 52%.
As for `CCc1ccc(S(=O)(=O)N[C@@H]2c3cc(C(=O)N(CC)c4ccc(OC)cc4)cnc3OC(C)(C)[C@H]2O)cc1` (racemic), in data set [1], the inhibition amounted to 22%.
Turning to `CCc1ccc(S(=O)(=O)N[C@@H]2c3cc(C(=O)N(CC)c4cccc(C)c4)cnc3OC(C)(C)[C@H]2O)cc1` (racemic), in data set [2], the IC50 worked out at 776 nM. Also, the inhibition in data set [1] turned out to be 58%.
Consider `CCc1ccc(S(=O)(=O)N[C@@H]2c3cc(C(=O)N(CC)c4ccccc4)cnc3OC(C)(C)[C@H]2O)cc1` (racemic), for which the IC50 in data set [2] stood at 378 nM. The inhibition in data set [1] came out at 89%. The compound further showed a solubility in data set [3] of 108 µg/mL (≈ 212 µM).
As to `CCc1ccc(S(=O)(=O)N[C@@H]2c3cc(C(=O)N4CCC[C@H]4CNc4c(C)cccc4C)ccc3OC(C)(C)[C@H]2O)cc1` (racemic), the IC50 in data set [2] was found to be 60 nM.
As to `CCc1ccc(S(=O)(=O)N[C@@H]2c3cc(C(=O)N4CCN=C4c4ccccc4)cnc3OC(C)(C)[C@H]2O)cc1` (racemic), in data set [1], the inhibition was 2%.
As for `CCc1ccc(S(=O)(=O)N[C@@H]2c3cc(C(=O)N(CC)Cc4ccc(C)cc4)cnc3OC(C)(C)[C@H]2O)cc1` (racemic), the IC50 in data set [2] turned out to be 1560 nM. Also, the inhibition in data set [1] stood at 15%.

For the origin of these results see ChEMBL document CHEMBL1144831, “Pyrano-[2,3b]-pyridines as potassium channel antagonists” (Bioorg Med Chem Lett, 2008).
